The values that follow come from patent publication US8859291B2, “Methods for target molecule detection using siderophores and related compositions” (PerkinElmer LAS, Inc., priority 2004, dated 2014).

This assay relates to deferoxamine-gallium (III) cation capture agent. The experiment in a line: AlphaScreen proximity assay: binding of biotinylated target molecules to deferoxamine-gallium (III) cation acceptor beads. As for the experimental part: To prepare desferrioxamine complexed with gallium (III) cation and desferrioxamine complexed with iron (III), as a capture agents attached to a plastic bead support, desferrioxamine was first attached to plastic beads as follows: 5 mg of deferoxamine, 250 ul of raw AlphaScreen™ acceptor beads (at 20 mg/ml), 6 ul of TWEEN™ 20 detergent (at 10% in water), 50 ul of sodium cyanoborohydride (at 25 mg/ml in water) and 695 ul of MES 0.1 M, pH 6.0 were mixed. The mixture was incubated overnight at 37° C. in an agitating water bath. The following morning, 50 ul of carboxymethoxylamine (at 65 mg/ml in water, pH 5) was added, and the mixture was incubated for 1 hour at 37° C. The beads were then centrifuged (30 minutes at 13,000 rpm), washed twice with TRIS buffer (0.1 M, pH 8.0).
To form a complex of desferrioxamine with transition metal cations, the beads were resuspended in HEPES buffer (25 mM, pH 7.4) containing 100 mM gallium (III) or iron (III) chloride. After 1 hour of incubation, the beads were centrifuged, washed twice with HEPES buffer (25 mM pH 7.4) and resuspended in HEPES buffer. Sonication optionally can be used to eliminate aggregates of beads. […]
The ability of deferoxamine-gallium (III) cation capture agents to bind to target molecules was confirmed using AlphaScreen™ assays. […] Alternatively, competition or cleavage assays can be read as signal reduction. […]
(In Alpha technology, singlet oxygen from a donor bead excites a nearby acceptor bead.)

“biotin-phosphoinositide-3,4,5-trisphosphate [biotin-PIP3]” yielded a concentration at which maximal signal was not yet reached greater than 1 µM. For the setting “HEPES buffer, streptavidin donor beads, triplicate”, the “concentration at which detection starts” value was “around 300 pM”.
